Measured values reported in US20230310472A1, “Stable Topical Formulations of 1(R)-4-(5-(4-Methoxy-3-Propoxphenyl)Pyridin-3-YL)-1,2-OX-Aborolan-2-OL” (Pfizer Inc., priority 2020, published 2023).

How the values were obtained:
Assay type in all cases: in vitro ADME
[1] = Stability on incubation in blood (LC-MS/MS); conditions: for concentration of PF-07086920 following incubation of PF-07038124 / concentration of PF-07038124 following incubation: 1 hour at 1 μM; for chemical stability in blood: oxidation of the oxaborole ring to diol
Method: One of the major metabolic pathways in humans was formation of the oxaborole ring opened molecule, PF-07086920. […] Following incubation for 1 hour at 1 μM in human and rat blood, the concentration of PF-07038124 declined whereas the concentration of PF-07086920 increased in both human and rat blood as determined by liquid chromatography-tandem mass spectrometry. In addition to being a metabolite, PF-07086920 was also determined to be a degradant in the formulations comprising PF-07038124.

monkey hepatocytes = assay: In vitro metabolism in hepatocytes; conditions: non-radiolabeled
Description: (§1) An assessment of the metabolism of non-radiolabeled PF-07038124 was 5 conducted in vitro using mouse, rat, dog, monkey and human hepatocytes. […] The primary routes of metabolism were hydrolysis/oxidation of the oxaborole ring to yield the diol (PF-07086920), glucuronidation of the pyridyl nitrogen, hydroxylation on the propyl group of the phenoxypropyl moiety, and demethylation of the methoxy group (shown below). All metabolites detected in mouse, rat, dog, and monkey hepatocytes were also observed in human hepatocytes.

rat hepatocytes = assay: In vitro metabolism in hepatocytes; conditions: non-radiolabeled
Description: as §1

dog hepatocytes = assay: In vitro metabolism in hepatocytes; conditions: non-radiolabeled
Description: as §1

human hepatocytes = assay: In vitro metabolism in hepatocytes; conditions: non-radiolabeled
Description: as §1

mouse hepatocytes = assay: In vitro metabolism in hepatocytes; conditions: non-radiolabeled
Description: as §1

concentration of PF-07086920 following incubation of PF-07038124 ([1]; human blood)	concentration of PF-07086920 following incubation of PF-07038124 ([1]; rat blood)	metabolism of PF-07038124 in hepatocytes (monkey hepatocytes)	metabolism of PF-07038124 in hepatocytes (rat hepatocytes)	metabolism of PF-07038124 in hepatocytes (dog hepatocytes)	metabolism of PF-07038124 in hepatocytes (human hepatocytes)	metabolism of PF-07038124 in hepatocytes (mouse hepatocytes)	concentration of PF-07038124 following incubation ([1]; human blood)	chemical stability in blood ([1]; human blood)	concentration of PF-07038124 following incubation ([1]; rat blood)	chemical stability in blood ([1]; rat blood)	Structure (SMILES)
increased	increased										CCCOc1cc(-c2cncc(C(CO)CO)c2)ccc1OC [PF-07086920, 2-(5-(4-methoxy-3-propoxyphenyl)pyridin-3-yl)propane-1,3-diol]
		Moderate to extensive metabolism	Moderate to extensive metabolism	Moderate to extensive metabolism	Moderate to extensive metabolism	Moderate to extensive metabolism	declined	chemically unstable	declined	chemically unstable	CCCOc1cc(-c2cncc([C@@H]3COB(O)C3)c2)ccc1OC [PF-07038124, (R)-4-(5-(4-methoxy-3-propoxyphenyl)pyridin-3-yl)-1,2-oxaborolan-2-ol]
